The values that follow come from patent US20070129357A1, “Novel crystals of fluorobenzamide derivative” (priority 2003, published 2007).

Data set [1] has as its system If current. Conditions: stated as known from WO 00/75133; cited from earlier work.
Data set [2] in a line: Hygroscopicity of the crystals (FIG. 5 and FIG. 6). The class given is physicochemical. The conditions noted are these: crystal forms of compound A compared, FIG. 5 (α-type, Example 3) and FIG. 6 (β-type, Example 2); monophosphate.

Entries after “also recorded” stand apart in the source; their conditions may differ.

As for `COc1cc2c(cc1OC)CN(C(=O)[C@@H]1CCCN(CCNC(=O)c3ccc(F)cc3)C1)CC2.O=P(O)(O)O` [compound A, (−)-N-{2-[(R)-3-(6,7-dimethoxy-1,2,3,4-tetrahydroisoquinoline-2-carbonyl)piperidino]ethyl}-4-fluorobenzamide monophosphate], the “inhibitory action for If current” value in data set [1] is recorded as “inhibitory action for If current”. Compound `COc1cc2c(cc1OC)CN(C(=O)[C@@H]1CCCN(CCNC(=O)c3ccc(F)cc3)C1)CC2.O=P(O)(O)O` [α-type crystal, (−)-N-{2-[(R)-3-(6,7-dimethoxy-1,2,3,4-tetrahydroisoquinoline-2-carbonyl)piperidino]ethyl}-4-fluorobenzamide monophosphate] returned a melting point of 203.8 to 204.7 °C. The hygroscopicity result in data set [2] is recorded as “particularly good hygroscopicity; also recorded: superior to the β-type crystal in terms of hygroscopicity”.

For `COc1cc2c(cc1OC)CN(C(=O)[C@@H]1CCCN(CCNC(=O)c3ccc(F)cc3)C1)CC2.O=P(O)(O)O` [β-type crystal, (−)-N-{2-[(R)-3-(6,7-dimethoxy-1,2,3,4-tetrahydroisoquinoline-2-carbonyl)piperidino]ethyl}-4-fluorobenzamide monophosphate], the melting point was in the range of 195.5 to 196.3 °C.

The melting point is the temperature, or range, at which the solid turns liquid.
